{"source": "patent US20240246920A1", "about": "“TRIAZOLE DERIVATIVES WITH ANTIFUNGAL ACTIVITY” (King's College London, priority 2020, published 2024)", "key": {"[1]": {"test_system": "Aspergillus carbonarius ATCC 8740", "experiment": "Aspergillus panel MIC", "assay_type": "cell-based", "conditions": "Table 8", "experimental": "(§1) Starter cultures of fungal strains to be tested were grown in 3 mL of RPMI 2% glucose media incubated at 37° C. with shaking at 200 rpm overnight. The culture media used was 900 mL H2O; 10.4 g RPMI 1640 (with L-glutamine and a pH indicator but without bicarbonate); 34.5 g MOPS and 18 g glucose. The pH of the media was adjusted to 7.0 with 1 M sodium hydroxide.\n(§2) Solutions of the compound to be tested were prepared by dissolving the compound in DMSO and subsequently into media to the desired concentrations. 200 μL of compound solution was then added to the wells of the 96-well plate using a serial dilution method row-by row of the plate to give a compound concentration gradient across the plate of from 128 μg/mL to 0.25 μg/mL. The last two rows of each plate were control rows containing the culture media alone and the media plus fungi.\n(§3) The fungi starter cultures were diluted 1:10 in water in cuvettes. This was then further diluted to an optical density (OD600) of 0.01 in media. 100 μL of the fungi was added to each well giving a starting concentration of fungus of 0.5-5×10^5/mL. One species of fungus was used on each plate. The plates were then held at 37° C. for 24 hours.\n(§4) A plate reader was used to measure growth in each well at OD530 nm and the MIC was determined for each test compound. The MIC is defined as the lowest concentration giving rise to inhibition of ≥50% of that of the drug-free control well containing the fungus and media.\n(§5) The compound of Example 2 (which corresponds to compound number 2) was tested against a panel of Aspergillus strains using a method analogous to that described above for the Candida Panel."}, "[2]": {"test_system": "Aspergillus fumigatus ATCC 13073", "experiment": "Aspergillus panel MIC", "assay_type": "cell-based", "conditions": "Table 8", "experimental": "as §1, §2, §3, §4, §5"}, "[3]": {"test_system": "Aspergillus fumigatus ATCC 204305", "experiment": "Aspergillus panel MIC", "assay_type": "cell-based", "conditions": "Table 8", "experimental": "as §1, §2, §3, §4, §5"}, "[4]": {"test_system": "Aspergillus fumigatus ATCC 1028", "experiment": "Aspergillus panel MIC", "assay_type": "cell-based", "conditions": "Table 8", "experimental": "as §1, §2, §3, §4, §5"}, "[5]": {"test_system": "Aspergillus fulavus ATCC 204304", "experiment": "Aspergillus panel MIC", "assay_type": "cell-based", "conditions": "Table 8", "experimental": "as §1, §2, §3, §4, §5"}, "[6]": {"test_system": "Aspergillus fumigatus ATCC 10894", "experiment": "Aspergillus panel MIC", "assay_type": "cell-based", "conditions": "Table 8", "experimental": "as §1, §2, §3, §4, §5"}, "[7]": {"test_system": "Aspergillus fumigatus ATCC 16424", "experiment": "Aspergillus panel MIC", "assay_type": "cell-based", "conditions": "Table 8", "experimental": "as §1, §2, §3, §4, §5"}, "C. auris 8971": {"test_system": "C. auris 8971", "experiment": "Candida panel MIC, serial dilution in 96-well plates", "assay_type": "cell-based, Candida auris", "outline": "(§6)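 MIC is the lowest concentration inhibiting growth by ≥50% relative to the drug-free control, read at OD530 nm after 24 hours at 37° C. Fungi were seeded at 0.5-5×10^5/mL in MOPS-buffered RPMI 1640 with 2% glucose, pH 7.0; compounds came from DMSO solutions diluted in media.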"}, "C. auris 8977": {"test_system": "C. auris 8977", "experiment": "Candida panel MIC, serial dilution in 96-well plates", "assay_type": "cell-based, Candida auris", "outline": "as §6"}, "C. auris 8984": {"test_system": "C. auris 8984", "experiment": "Candida panel MIC, serial dilution in 96-well plates", "assay_type": "cell-based, Candida auris", "outline": "as §6"}}, "note": "Like-named read-outs stand apart in the source and are kept apart here."}
{"smiles": "OC(Cn1cncn1)(Cn1cncn1)c1ccc(F)cc1F", "note": "[Fluconazole, fluconazole, reference compound]", "values": [{"measurement": "Minimum inhibitory concentration Aspergillus carbonarius ATCC 8740", "setting": "[1]", "result": ">64"}, {"measurement": "Minimum inhibitory concentration Aspergillus fumigatus ATCC 13073", "setting": "[2]", "result": ">64"}, {"measurement": "Minimum inhibitory concentration Aspergillus fumigatus ATCC 204305", "setting": "[3]", "result": ">64"}, {"measurement": "Minimum inhibitory concentration Aspergillus fumigatus ATCC 1028", "setting": "[4]", "result": ">64"}, {"measurement": "Minimum inhibitory concentration Aspergillus fulavus ATCC 204304", "setting": "[5]", "result": ">64"}, {"measurement": "Minimum inhibitory concentration Aspergillus fumigatus ATCC 10894", "setting": "[6]", "result": ">64"}, {"measurement": "Minimum inhibitory concentration Aspergillus fumigatus ATCC 16424", "setting": "[7]", "result": ">64"}, {"measurement": "MIC", "setting": "C. auris 8971; Candidozyma auris, 8971, 24 h, read-out: MIC C. auris 8971", "result": 16, "unit": "µg/mL"}, {"measurement": "MIC", "setting": "C. auris 8971; Candidozyma auris, 8971, read-out: MIC C. auris 8971", "result": 32, "unit": "µg/mL"}, {"measurement": "MIC", "setting": "C. auris 8977; Candidozyma auris, 8977, 24 h, read-out: MIC C. auris 8977", "result": 32, "unit": "µg/mL"}, {"measurement": "MIC", "setting": "C. auris 8977; Candidozyma auris, 8977, read-out: MIC C. auris 8977", "result": 16, "unit": "µg/mL"}, {"measurement": "MIC", "setting": "C. auris 8984; Candidozyma auris, 8984, 24 h, read-out: MIC C. auris 8984", "result": "> 128", "unit": "µg/mL"}, {"measurement": "MIC", "setting": "C. auris 8984; Candidozyma auris, 8984, read-out: MIC C. auris 8984", "result": "> 128", "unit": "µg/mL"}]}
